Results: US6180083A, “Tropane derivatives useable in particular for in vivo detection of dopamine transporters” (CIS bio International, priority 1996, dated 2001)
Like-named read-outs stand apart in the source and are kept apart here.

How the values were obtained:
[1] = test system: dopamine transporter; test: in vitro competition with [^3 H]-GBR 12935 on brain membrane preparations; assay type: binding; conditions: for Ki: read-out: Affinity: Ki (nM) Dopamine (DA); for Selectivity 5-HT/DA, Ki(5-HT):Ki(DA): [^3 H]paroxetine Ki over [^3 H]GBR Ki
Method: (§1) In this example, in vitro studies are conducted on brain membrane preparations.
(§2) These studies are competition studies between [^3 H]-GBR 12935 (dopamine transporter), [^3 H]-paroxetine (serotonin transporter), [^3 H]-nisoxetine (noradrenaline transporter) and the iodinated derivative of example 1 (PE21).
(§3) The inhibition constants Ki (nM) obtained with the compound of the invention PE21 in competition with the different ligands are given in table 4.
(§4) Med., 1996, 37, pages 1197-1202 for tests of the same type conducted with β-CIT and iodoaltropane described in WO-A-95/11901.

[2] = test system: dopamine transporter system; test: kinetics study in vivo on the brain distribution in primates (SPECT, […]); design: species or system primates (Cynomologus female macaque); conditions: words
Method: In this example, a kinetics study in vivo is made on the brain distribution of the compound of example 1 in primates (Cynomologus female macaque, 2 kg, anaesthetized with ketamine, with data acquisition made every 12 minutes on […]).

[3] = biological target: T1, noradrenaline transporter (Rattus norvegicus, UniProt Q63380); test: in vitro competition with [^3 H]-nisoxetine on brain membrane preparations; assay type: binding
T1 construct: in vitro studies are conducted on brain membrane preparations; from tissue; host or cells: brain membrane preparations
T1 sequence (Q63380 1-617): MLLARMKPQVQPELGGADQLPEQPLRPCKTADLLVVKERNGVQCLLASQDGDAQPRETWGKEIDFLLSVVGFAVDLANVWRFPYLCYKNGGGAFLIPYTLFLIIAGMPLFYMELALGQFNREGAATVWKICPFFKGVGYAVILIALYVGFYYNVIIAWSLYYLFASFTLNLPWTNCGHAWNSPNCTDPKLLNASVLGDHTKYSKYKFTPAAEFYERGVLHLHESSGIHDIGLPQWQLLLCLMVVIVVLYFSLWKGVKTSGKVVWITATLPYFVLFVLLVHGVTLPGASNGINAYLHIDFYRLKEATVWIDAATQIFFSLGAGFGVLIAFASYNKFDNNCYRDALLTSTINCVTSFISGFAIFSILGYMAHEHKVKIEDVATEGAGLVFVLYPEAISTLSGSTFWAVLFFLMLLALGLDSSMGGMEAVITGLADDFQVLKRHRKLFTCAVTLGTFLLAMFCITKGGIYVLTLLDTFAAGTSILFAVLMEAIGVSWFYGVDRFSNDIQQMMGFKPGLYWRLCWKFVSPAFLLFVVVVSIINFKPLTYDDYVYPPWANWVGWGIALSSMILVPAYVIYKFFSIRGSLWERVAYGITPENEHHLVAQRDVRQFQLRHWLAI
Method: as §1, §2, §3, §4

[4] = biological target: T2, dopamine transporters (Rattus norvegicus, UniProt P23977); test: in vitro affinity of [^125 I]PE21 for dopamine transporters; assay type: binding
T2 sequence (P23977 whole entry): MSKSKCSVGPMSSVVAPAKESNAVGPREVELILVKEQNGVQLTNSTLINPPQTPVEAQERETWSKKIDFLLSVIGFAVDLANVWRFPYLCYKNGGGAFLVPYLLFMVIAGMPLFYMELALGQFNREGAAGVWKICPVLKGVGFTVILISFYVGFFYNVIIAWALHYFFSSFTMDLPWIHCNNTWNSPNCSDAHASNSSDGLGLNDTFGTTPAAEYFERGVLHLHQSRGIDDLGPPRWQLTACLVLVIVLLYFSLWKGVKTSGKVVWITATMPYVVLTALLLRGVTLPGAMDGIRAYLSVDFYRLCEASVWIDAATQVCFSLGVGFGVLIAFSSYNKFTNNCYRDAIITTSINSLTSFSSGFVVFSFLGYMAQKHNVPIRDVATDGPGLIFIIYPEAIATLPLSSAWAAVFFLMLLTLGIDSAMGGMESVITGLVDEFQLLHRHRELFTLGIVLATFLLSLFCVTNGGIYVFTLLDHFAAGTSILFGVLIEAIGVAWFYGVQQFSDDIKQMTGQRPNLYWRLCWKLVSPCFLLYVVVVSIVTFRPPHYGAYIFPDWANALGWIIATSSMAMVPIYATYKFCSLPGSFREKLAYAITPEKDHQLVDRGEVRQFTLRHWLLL
Method: The affinity of compound [^125 I)PE21 for dopamine transporters was also determined in vitro, and the following value was obtained: […]

[5] = test system: dopamine transporter; test: in vivo brain biodistribution in the rat with preinjection of GBR 12909 (specific inhibitor of the dopamine transporter); design: species or system rat (male Wistar); conditions: for fixation in the striatum prevented/inhibited by preinjection of GBR 12909: GBR 12909 5 mg/kg i.v. 30 min before, 2 hours after injection
Method: (§5) In this example, in vivo tests in the rat are used to study the affinity and specificity of the compound of example 1, hereinafter called PE21, for the dopamine transporter.
(§6) For this purpose 3 batches of male Wistar rats are used using 6 rats per batch. Batch number 1 is first given an intravenous injection of GBR 12909 (specific inhibitor of the dopamine transporter produced by RBI Bioblock) at a dose of 5 mg/kg, and 30 minutes later an injection of the compound of example 1 is given by intravenous route, at a dose of 8.10^-6 mg/kg.
(§7) Batch number 3, or the reference batch, only receives an intravenous injection of the compound of example 1.
(§8) 2 hours later, the animals are sacrificed and the doses of radioactivity in the cerebellum, striatum and frontal cortex tissues are determined.
(§9) The results obtained are given in FIG. 2 and are expressed as a % of the dose injected per gram of tissue.
(§10) In this figure, the columns in white relate to batch number 3 (reference), the shaded columns relate to batch number 1 which received GBR 12909 and the dotted columns relate to batch number 2 which received paroxetine.
(§11) In this example, the same operating mode as in example 14 is followed to conduct the same in vivo brain biodistribution study in the rat, but using the compound of the prior art β-CIT (3b-4-iodo[^125 I]phenyl)-tropan-2β-carboxylic acid methyl ester) instead of the compound of example 1.

[6] = biological target: T3, serotonin transporter (Rattus norvegicus, UniProt P31652); test: biochemical; assay type: binding
T3 construct: in vitro studies are conducted on brain membrane preparations; from tissue; host or cells: brain membrane preparations
T3 sequence (P31652 whole entry): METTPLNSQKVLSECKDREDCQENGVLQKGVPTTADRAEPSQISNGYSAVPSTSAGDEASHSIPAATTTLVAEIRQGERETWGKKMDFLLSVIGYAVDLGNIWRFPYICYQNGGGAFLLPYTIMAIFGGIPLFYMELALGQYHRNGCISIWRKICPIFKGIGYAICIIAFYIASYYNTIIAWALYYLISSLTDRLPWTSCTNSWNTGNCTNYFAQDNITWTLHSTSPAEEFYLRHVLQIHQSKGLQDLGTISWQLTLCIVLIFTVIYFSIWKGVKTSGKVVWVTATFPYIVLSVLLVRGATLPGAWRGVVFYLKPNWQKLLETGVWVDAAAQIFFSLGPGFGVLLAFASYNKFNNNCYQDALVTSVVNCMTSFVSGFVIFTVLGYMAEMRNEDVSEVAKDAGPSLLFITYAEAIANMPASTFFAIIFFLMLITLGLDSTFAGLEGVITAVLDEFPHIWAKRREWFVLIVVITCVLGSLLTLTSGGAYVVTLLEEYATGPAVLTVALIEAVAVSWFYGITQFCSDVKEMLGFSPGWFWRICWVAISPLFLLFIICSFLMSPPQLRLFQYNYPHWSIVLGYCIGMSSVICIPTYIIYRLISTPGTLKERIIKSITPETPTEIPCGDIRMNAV
Method: as §1, §4

[7] = test system: serotonin transporter; test: in vivo brain biodistribution in the rat with preinjection of paroxetine (specific inhibitor of the serotonin transporter); design: species or system rat (male Wistar); conditions: for specificity for the dopamine transporter compared with the serotonin transporter in vivo: rat brain
Method: as §5
Batch number 2 first receives an injection of paroxetine (specific inhibitor of the serotonin transporter made by Beecham laboratories) at a dose of 5 mg/kg, and 30 minutes later an injection of the compound of example 1 is given under the same conditions as for batch number 1.
as §7, §8, §9, §10, §11

[8] = biodistribution study in the rat, time course (cerebellum, striatum, frontal cortex); assay type: in vivo, rat (male Wistar); conditions: for tissue uptake at 0.5 h / tissue uptake at 1 h / tissue uptake at 2 h / tissue uptake at 4 h: rat, iv, 8e-06 mg/kg; for tissue uptake at 0.5 h: 0.5 h post-injection; for tissue uptake at 1 h: 1 h post-injection; for tissue uptake at 2 h: 2 h post-injection; for tissue uptake at 4 h: 4 h post-injection
Method: as §6, §7, §8, §9
In this example, a biodistribution study in the rat is also conducted for the compound of example 1 following the same operating mode as in example 14, but sacrificing the animals at 1/2 hour, 1 hour or 4 hours after injection.
In this table, the results obtained in example 14 are also given.

[9] = test system: dopaminergic cells; test: rat model of Parkinson's disease (unilateral 6-OHDA lesion of the nigrostriatal pathway), ex vivo autoradiography; assay type: in vivo, rat (Wistar); conditions: 2 hours after 3.7 MBq i.v.
Method: In this example, the compound of example 1 PE21 was tested in the rat using a model of Parkinson's disease obtained with a unilateral lesion of the nigrostriatal pathway. For this purpose Wistar rats were unilaterally perfused in the substantia nigra with 8 μg of 6-OHDA(6-hydroxy dopamine).
Three weeks later, they were given an intravenous 3.7 MBq injection of [^125 I]PE21.
Two hours afterwards, the rats were sacrificed and their brains collected. The latter were frozen and coronal sections 20 μm thick were taken which were exposed on β-max hyperfilm for six weeks.
The striatum/frontal cortex ratios were calculated after analysis of the films. On the lesion side, an average ratio of 0.86±0.10 was observed, while this ratio was 7.20±0.91 on the intact side.

[10] = biological target: dopamine transporter; conditions: Bonnet and Constantin 1986; cited from earlier work
[11] = biological target: serotonin transporters; conditions: document 11, page 320; cited from earlier work
[12] = biological target: T2, dopamine transporters; test: affinity of IPT for dopamine transporters (document 11); assay type: binding; conditions: from document 11 values
Source text: Therefore a specificity Kd(5-HT)/Kd(DA) of approximately 5 is obtained.
By way of comparison, the affinity of compound IPT for dopamine transporters described in document 11 corresponds to: […]

[13] = biological target: T2, dopamine transporters; conditions: document 11; cited from earlier work
[14] = biological target: dopamine transporter; test: competition with [^3 H]Win35428 (document 10); assay type: binding; conditions: document 10 data
Source text: as §4

[15] = biological target: dopamine transporter; conditions: [^3 H]Win35428; document 10; read-out: Affinity: Ki (nM) Dopamine (DA); cited from earlier work
[16] = biological target: serotonin transporter (Macaca fascicularis, UniProt A7KAX8); conditions: read-out: Affinity: Ki (nM) Serotonin 5-HT; [^3 H]citalopram; document 10; cited from earlier work
Sequence of serotonin transporter (Macaca fascicularis, UniProt A7KAX8) (A7KAX8 1-630): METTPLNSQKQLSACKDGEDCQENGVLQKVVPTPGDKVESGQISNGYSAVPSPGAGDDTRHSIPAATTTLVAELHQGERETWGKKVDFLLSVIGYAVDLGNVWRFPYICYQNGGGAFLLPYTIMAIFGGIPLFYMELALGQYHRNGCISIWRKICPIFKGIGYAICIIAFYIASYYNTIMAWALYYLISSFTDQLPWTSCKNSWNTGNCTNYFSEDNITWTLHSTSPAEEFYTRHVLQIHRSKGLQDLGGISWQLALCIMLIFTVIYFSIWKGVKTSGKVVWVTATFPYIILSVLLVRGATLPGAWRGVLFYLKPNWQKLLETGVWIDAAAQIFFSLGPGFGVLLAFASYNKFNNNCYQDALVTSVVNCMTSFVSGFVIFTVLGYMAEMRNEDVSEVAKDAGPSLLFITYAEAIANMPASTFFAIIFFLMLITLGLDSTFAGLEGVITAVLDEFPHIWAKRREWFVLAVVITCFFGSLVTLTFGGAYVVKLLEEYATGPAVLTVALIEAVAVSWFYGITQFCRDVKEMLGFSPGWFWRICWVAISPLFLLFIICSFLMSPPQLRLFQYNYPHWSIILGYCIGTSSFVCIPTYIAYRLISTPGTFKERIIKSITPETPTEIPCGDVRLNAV

[17] = test system: dopamine transporter system; conditions: prior art compound; source not stated; cited from earlier work
[18] = cerebellum, read-out: Cerebellum
[19] = frontal cortex, read-out: Frontal cortex (% injected dose/g tissue)
[20] = striatum, read-out: Striatum (% injected dose/g tissue)

COC(=O)[C@H]1[C@@H](c2ccc(C)cc2)C[C@@H]2CC[C@H]1N2C/C=C/[125I] [Example 1, 2β-carbomethoxy-3β-(p-methylphenyl)-8-(3-[^125 I]iodoprop-2E-enyl)nortropane]
specificity relative to IPT ([1]; Ki(5-HT)/Ki(DA) of PE21 vs Kd(5-HT)/Kd(DA) of IPT): 5 times | Ki ratio DA (PE21)/DA (β-CIT) ([1]; [^3 H]GBR): 0.63 | Ki ([1]; [^3 H]GBR): 17 ± 7 nM | Selectivity 5-HT/DA, Ki(5-HT):Ki(DA) [1]: 29.4 | better affinity for dopamine transporter relative to iodoaltropane ([1]; from Ki ratios to β-CIT): 10 times | binding at the central grey nuclei [2]: binds itself in specific manner at the central grey nuclei | Ki ([3]; [^3 H]nisoxetine, read-out: Affinity: Ki (nM) Nor-adrenaline): > 100 nM | affinity relative to IPT ([4]; Kd of PE21 vs Kd of IPT (document 11)): 2.5 times | Kd ([4]; [^125 I]PE21): 0.09 ± 0.01 nM | non-specific fixation in the striatum determined after saturation with GBR 12909 ([5]; 2 hours): approximately 25% | specificity for the dopamine transporter in the striatum at early times ([5]; 2 hours, words): very strong specificity for the dopamine transporter in the striatum | fixation in the striatum prevented/inhibited by preinjection of GBR 12909 [5]: 74% | Ki [6]: 500 ± 80 nM | specificity for the dopamine transporter compared with the serotonin transporter in vivo ([7]; words): very strong specificity for the dopamine transporter compared with the serotonin transporter | tissue uptake at 0.5 h [8, 18]: 0.1 %ID/g | tissue uptake at 1 h [8, 18]: 0.055 %ID/g | tissue uptake at 2 h [8, 18]: 0.038 %ID/g | tissue uptake at 4 h [8, 18]: 0.021 %ID/g | tissue uptake at 0.5 h [8, 19]: 0.124 %ID/g | tissue uptake at 1 h [8, 19]: 0.07 %ID/g | tissue uptake at 2 h [8, 19]: 0.039 %ID/g | tissue uptake at 4 h [8, 19]: 0.018 %ID/g | tissue uptake at 0.5 h [8, 20]: 1.06 %ID/g | tissue uptake at 1 h [8, 20]: 0.537 %ID/g | tissue uptake at 2 h [8, 20]: 0.272 %ID/g | tissue uptake at 4 h [8, 20]: 0.074 %ID/g | accumulation in the striatum ([8]; words): accumulates in preferential manner in the striatum | striatum/frontal cortex ratio, lesion side ([9]; 6-OHDA lesion side): 0.86±0.10 | striatum/frontal cortex ratio, intact side ([9]; intact side): 7.20±0.91

C(=Cc1ccccc1)CN1CCN(CCOC(c2ccccc2)c2ccccc2)CC1 [GBR 12783]
Kd [10]: 1.6 nM

COC(=O)[C@H]1[C@@H](c2ccc(Cl)cc2)C[C@@H]2CC[C@H]1N2CC=CI [IPT]
Kd [11]: 1.2 ± 0.02 nM | specificity Kd(5-HT)/Kd(DA) [12]: approximately 5 | Kd [13]: 0.25 ± 0.02 nM

COC(=O)[C@H]1[C@@H](c2ccc(F)cc2)C[C@@H]2CC[C@H]1N2C/C=C/I [Iodoaltropane]
Ki ratio DA (iodoaltropane)/DA (β-CIT) [14]: 6 | Ki [15]: 6.62 ± 0.78 nM | Ki [16]: 182 ± 41.8 nM

COC(=O)[C@H]1[C@@H](c2ccc(I)cc2)C[C@@H]2CC[C@H]1N2C [β-CIT, 2β-carbomethoxy-3β-(4' iodophenyl)-tropane, reference compound]
Ki ([1]; [^3 H]GBR): 27 ± 2 nM | Selectivity 5-HT/DA, Ki(5-HT):Ki(DA) [1]: 1.11 | Ki [15]: 1.08 ± 0.6 nM | Ki [3]: 80 ± 28 nM | non-specific fixation in the striatum determined after saturation with GBR 12909 ([5]; 2 hours): ~70% | fixation in the striatum prevented/inhibited by preinjection of GBR 12909 [5]: 31% | Ki [6]: 30 ± 2 nM | Ki [16]: 2.53 ± 0.02 nM | fixation in the frontal cortex compared with the compound of the invention ([7]; frontal cortex, rich in serotonin transporter sites, 2 hours, words): much higher than that of the compound of the invention | inhibition of fixation in the frontal cortex through a preinjection of paroxetine ([7]; frontal cortex, paroxetine 5 mg/kg i.v. 30 min before, 2 hours): 55% | specificity for the dopamine transporter compared with the serotonin transporter in vivo ([7]; words): binds to both these transporters | time at which a specific image of the central grey nuclei starts to be produced [17]: > 20 h
